Key:
humanized NOD-DR3 mice = assay: Free T4 and anti-mouse Tg antibody levels in cepharanthine-treated immunized mice; assay type: in vivo; settings: data not shown
Protocol: Autoantibody Measurements: Sera were collected from mice upon sacrifice and stored in −20° C. Nunc™ Maxisorp™ ELISA plate (Thermo Fisher Scientific, Waltham, MA) was coated with 10 μg/ml of either Tg.1571, GAD.492, TPO.758 or mouse Tg in bicarbonate buffer (Sigma-Aldrich) at pH 9.6 and incubated overnight. The ELISA plate was washed 4 times with PBS supplemented with 0.05% Tween (Sigma-Aldrich) [PBST]. After blocking with 2.5% BSA in PBST for 1 h at 37° C., the plate was washed with PBST for 6 times. 100 μl of the diluted sera (1:100 in 0.5% BSA/PBS) was added for 2 h with slow shaking at room temperature. After washing for 6 times with PBST, anti-mouse IgG secondary antibody (Sigma-Aldrich) was added at 1:30,000 dilution in 1% BSA/PBST and incubated for 30 min at 37° C. After washing the plate for 4 times with PBST, the freshly prepared paranitrophenylphosphate substrate (Sigma-Aldrich) was added for 1 h and the plate was read at 405 nm using the BMG reader (BMG Labtech, Cary, NC).
Free T4 Measurements: Sera were collected from mice and were assayed for free thyroxin (fT4) measurements using free thyroxine ELISA kit (Alpha Diagnostic International, San Antonio, TX, catalog no. 1110). Assay was performed according to manufacturer's protocol. […] Absorbance at 450 nm was measured using a BMG ELISA reader (BMG Labtech). […]

[1] = test system: humanized NOD-DR3 mice immunized with Tg.1571, GAD.492 and TPO.758; assay: Blocking the induction of APS3v in vivo: T-cell stimulation by CFSE analysis; parameters: stimulation index, T cell proliferation induced by GAD.492 / stimulation index, T cell proliferation induced by TPO.758 / T-cell proliferation induced by Tg.1571: dose or concentration left out as unconfirmed
Protocol: Blocking the Induction of APS3v by cepharanthine In Vivo: […] with the peptide mix of Tg.1571, GAD.492 and TPO.758 on day 0; mice were injected with cepharanthine IP again on days 5 and 6 prior to immunization with the same peptide mix on day 7. As controls, four humanized NOD-DR3 littermates were injected with the vehicle that was used to dissolve cepharanthine for in vivo studies [ethanol: PEG400 (Fisher Scientific): saline (5:20:75)] (Frontage Laboratories, Exton, PA) using the same timeline for immunizations.
T-Cell Stimulation and CFSE Analysis: Cells harvested from the spleen and draining lymph nodes of immunized mice were resuspended at 2×10^6 cells/ml in 0.1% BSA/PBS. 1×10^6 cells were labeled with 1.5 μM carboxyfluorescein diacetate succinimidyl ester (CFSE) (Life Technologies). After incubating for 10 min at 37° C., the staining was terminated by the addition of 4 volumes of ice-cold RPMI with 10% FBS. After incubating on ice for 5 min, the cells were washed three times with fresh RPMI and resuspended in fresh medium for counting.
The CFSE-labeled cells were plated at 2×10^5 cells/well in 100 μl medium (RPMI, 10% FBS). The cells were incubated with: medium, Tg.1571, GAD.492, TPO.758 (20 μg/ml), a negative control peptide (NC) (20 μg/ml), or mouse anti-CD3/CD28 beads (Life Technologies) that activate all CD4+ T-cells nonspecifically, as a positive control. The cells were collected after 5 days for flow cytometry analysis. All experiments were performed in quadruplicates. The results were analyzed using Flowjo (Tree Star, Ashland, OR). The stimulation index was calculated by using the following formula: stimulation index=[% proliferating lymphocytes (peptide/mitogen-treated)]/[% proliferating lymphocytes (medium-treated)].
Four humanized NOD-DR3mice were treated with cepharanthine (S53) or vehicle (used to dissolve cepharanthine) for 2 consecutive days before each of the two immunizations with Tg.1571,GAD.492 and TPO.758 peptide mix. At sacrifice, splenocytes and draining lymph node cells were incubated with each peptide and labeled with CFSE for 5 days for T-cell stimulation analysis. Briefly, the CFSE labeled cells were plated at 2×10^5 cells/well in 100 μl medium (RPMI, 10% FBS).The cells were incubated with: medium, Tg.1571, GAD.492, TPO.758 (20 μg/ml), a negative control peptide (NC) (20 μg/ml), or mouse anti-CD3/CD28 beads (Life Technologies) that activate all CD4+ T-cells non-specifically, as a positive control. The cells were collected after 5 days for flow cytometry analysis (see Materials and Methods for details).

COc1ccc2cc1Oc1ccc(cc1)C[C@H]1c3c(cc4c(c3Oc3cc5c(cc3OC)CCN(C)[C@@H]5C2)OCO4)CCN1C [S53, Cepharanthine]
antibody levels against mouse Tg (humanized NOD-DR3 mice): did not significantly affect | free T4 levels (humanized NOD-DR3 mice): did not significantly affect | stimulation index, T cell proliferation induced by GAD.492 ([1]; -1, 5, 6, CFSE, 5 days, vehicle control 3.21): 1.53 | stimulation index, T cell proliferation induced by TPO.758 ([1]; -1, 5, 6, CFSE, 5 days, vehicle control 6.39): 3.11 | T-cell proliferation induced by Tg.1571 ([1]; -1, 5, 6, CFSE, 5 days, vs vehicle): suppressed T-cell proliferation induced by Tg.1571, although not statistically significant | T-cell activation (lymphocyte proliferation, CFSE) in treated mice vs vehicle treated controls ([1]; IV on days -2, -1, 5 and 6 at 1 mg/kg, sacrificed day 21): significantly suppressed T-cell activation

— patent US20240342158A1, “METHOD OF TREATING AND/OR PREVENTING TYPE 1 DIABETES WITH CEPHARANTHINE” (ALBERT EINSTEIN COLLEGE OF MEDICINE, priority 2021, published 2024)
